# Earlier results, collected in patent US20050020546A1, “Pharmaceutical compositions comprising active vitamin D compounds” (Novacea, Inc., priority 2003, published 2005).
# Settings: compared with calcitriol
row,Hypercalcemic effect,SMILES
1,reduced hypercalcemic effect,C=C1/C(=C/C=C2\CCC[C@]3(C)C([C@H](C)CC#CC(O)(C(F)(F)F)C(F)(F)F)=CC[C@@H]23)C[C@@H](O)C[C@@H]1O [Ro24-5531]
2,reduced hypercalcemic effect,C=C1/C(=C\C=C2/CCC[C@]3(C)C([C@H](C)CC#CC(C)(C)O)=CC[C@@H]23)C[C@@H](O)C[C@@H]1O [Ro23-7553]
